Reference: EP4623911A1, “PI4KB INHIBITORS FOR THE TREATMENT OF FATTY LIVER DISEASE” (ETH Zurich, priority 2024, dated 2025)
Where a SMILES comes first, the peptide text is derived from it. The star is where a group is joined. Cbz = O=C(OCc1ccccc1)*

Legend:
ATGL [1] = experiment: ATGL protein quantification via immunoblot in HepG2 cell type; assay type: cell-based, human
Protocol: HepG2 cell type was cultured in RPMI medium with 10% FBS and 1% Pen/Strep on collagen-coated plates. Lipofectamine RNAiMAX reagent mediated siRNA (100 nM) was delivered to cells at the suspended state for 48 h. Different from HEK cells, it is not necessary to induce LDs via OA treatment in that there exist LDs in the HepG2 cell type at normal culture medium. The inventors treated HepG2 cells with 10 µM PF04620110 (DGAT1 inhibitor, Sigma) & PF-06424439 (DGAT2 inhibitor, Sigma) for 48 hours or with 5 µg/mL BFA (B5936, Sigma) for 6 hours to deplete LDs and intact Golgi in the HepG2 cell type respectively before glucose deprivation. To deprive glucose in the HepG2 cell type, we either added 2-DG at indicated concentrations to the culture medium or refresh cells with RPMI medium containing different glucose concentrations prepared from the same RPMI medium (Gibco, 11879020).
Adipose depots, liver pieces, differentiated iBAs, HepG2, HEK293T and HEK293-AAV cell types were homogenized in RIPA buffer (50 mM Tris-HCl pH 7.4, 150 mM NaCl, 2 mM EDTA, 1.0% Triton X100, 0.5% sodium deoxycholate) with protease inhibitors (Complete, Roche) and phosphatase inhibitors (Halt phosphatase inhibitor cocktail, ThermoFisher). […] The concentration of WCE was determined by DC Protein Assay (Bio-Rad). […]

wild-type mice = experiment: Glucose deprivation by 2-DG administration in mice; assay type: in vivo
Protocol: All animal experiments were permitted by the Veterinary office of the Canton of Zurich. Both female and male mice were used in the experiments, and they were housed 2-5 littermates per cage in ventilated cages at standard housing conditions (22°C, 12 h reversed light/dark cycle, dark phase starting at 7 am) with normal chow diet (18% proteins, 4.5% fibers, 4.5% fat, 6.3% ashes, Provimi Kliba SA) and water. Health status of all the mouse lines were monitored regularly based on FELASA guidelines. 8-10 weeks old C57BL/6N male mice were fasted for 24 h or injected with 2-DG (2 g/kg BW) to induce glucose deprivation for different durations. Female ROSA26-LSL-spCas9 mice (The Jackson Lab strain) were intravenously injected with AAV8-U6-Pi4kb gRNAs-TBG-Cre, AAV8-U6-Sacm1l gRNAs-TBG-Cre, AAV8-U6-Cu/7 gRNAs-TBG-Cre and AAV8-U6-Fbxw8 gRNAs-TBG-Cre virus pools to express six gRNAs targeting individual gene and CAS9 in the liver at a dose of 3×10^11 genome copies/mouse. Two weeks later, livers were harvested for protein and RNA extraction after 6 hours fasting. To determine liver TG levels under NCD feeding condition, 4 weeks after AAV administration livers were harvested after 6 hours fasting. Also 4 weeks after AAV administration, the liver specific Cul7&Fbxw8 double knockout mice were injected with 2-DG (2 g/kg BW) to induce 1 hour glucose deprivation prior to liver harvesting for protein extraction.
Adipose depots, liver pieces, differentiated iBAs, HepG2, HEK293T and HEK293-AAV cell types were homogenized in RIPA buffer (50 mM Tris-HCl pH 7.4, 150 mM NaCl, 2 mM EDTA, 1.0% Triton X100, 0.5% sodium deoxycholate) with protease inhibitors (Complete, Roche) and phosphatase inhibitors (Halt phosphatase inhibitor cocktail, ThermoFisher). The homogenates were centrifuged at 12,000×g for 10 min at 4°C to remove debris and collect whole cell extract (WCE). The concentration of WCE was determined by DC Protein Assay (Bio-Rad). After boiling the sample with Lämmeli buffer at 95°C for 5 min, equal amount of proteins was loaded and separated on 12% SDS-PAGE. The proteins were transferred to nitrocellulose membrane and blotted by ATGL (1:1000, Cell Signaling), CGI-58 (1:1000, Proteintech), phospho-HSL(Ser660) (1:1000, Cell Signaling), PLIN1 (1:1000, Cell Signaling), HSL (1:1000, Cell Signaling), γ-tubulin (1:10000, Sigma), FLAG (1:10000, Sigma; 1:1000, Cell Signaling), MGL (1:1000, Abcam), HA (1:1000, Cell signaling), FBXW8 (1:100, Santa Cruz; 1:1000, Sigma), CUL7 (1:100, Santa Cruz), HSP90 (1:1000, Cell Signaling), K48 polyubiquitin (1:1000, Cell signaling), PI4KB (1:1000, Sigma), SACM1L (1:1000, Sigma), AKT1 (1:1000, Cell Signaling), phospho-AKT1(Ser473) (1:1000, Cell Signaling), TGN46 (1:1000, Abcam), MAOA (1:1000, Abcam), PLIN2 (1:1000, Abcam), PMP70 (1:10000, Sigma), Calnexin (1:1000, Cell Signaling), ARF1 (1:1000, Invitrogen), GAPDH (1:1000, Cell Signaling), RAB7 (1:1000, Cell Signaling), alpha 1 Sodium Potassium ATPase (1:1000, Abcam), Cleaved Caspase-3 (1:1000, Cell Signaling), phospho-AMPKα (Thr172) (1:1000, Cell Signaling), AMPKα (1:1000, Cell Signaling) and GM130 (1:1000, Proteintech). The primay antibody signal was visualized by HRP-conjugated secondary antibodies (1:5000, Millipore) and the ImageQuant system (GE Healthcare Life Sciences).
For mouse insulin measurement, plasma was collected at different timepoints after 2-DG administration in wild type mice. 5 µl plasma sample was used to determine insulin levels via Ultra-sensitive mouse insulin ELISA kit (Crystal Chem, Cat# 90080) according to the manufacturer's protocol. The absorbance was measured via Synergy Gen5 Platereader at 450/630 nm. 2 µl plasma sample was used to determine glucose levels via Glucose Assay Kit (Sigma, MAK263) according to the manufacturer's protocol. The absorbance was read at 570 nm in Synergy Gen5 Platereader.
Plasma collected from mice under different conditions was used to determine levels of lipolysis and liver injury. […]

ATGL [2] = experiment: Blocking of proteasome mediated degradation and autophagy, cellular ATGL protein; assay type: cell-based; details: proteasome blocked by MG132
[3] = 1 hour after 2-DG administration

O=CC[C@@H](O)[C@H](O)[C@H](O)CO [2-DG, 2-Deoxy-D-glucose]
ATGL protein abundance (ATGL [1]; HepG2, 2-DG treatment (50 mM), transcript levels unchanged): strongly induced | lipolysis (plasma FFA levels) (wild-type mice; 2-DG 2 g/kg BW, 1 h, 6 h and 12 h): significantly induced | ATGL levels in livers of wild-type mice (wild-type mice; 2-DG for 1 hour, no upregulation in Cul7 and Fbxw8 double knockout): upregulation | ATGL protein levels in the liver and iBAT (wild-type mice; 1 hour after 2-DG): increased | HSL phosphorylation in white adipose tissues (wild-type mice; [3]): upregulation | plasma insulin levels (wild-type mice; [3]): reduction | ATGL protein levels in the liver, iBAT, iWAT and gWAT (wild-type mice; longer glucose deprivation (6 h, 12 h after 2-DG)): further accumulation

C[C@H]1CCC/C=C/[C@@H]2C[C@H](O)C[C@H]2[C@H](O)/C=C/C(=O)O1 [BFA, Brefeldin A]
intracellular ATGL levels upon glucose deprivation (ATGL [1]; HepG2 after treatment with BFA (5 µg/mL, 6 hours)): failed to upregulate

CC(C)C[C@@H](C=O)NC(=O)[C@H](CC(C)C)NC(=O)[C@H](CC(C)C)NC(=O)OCc1ccccc1 [MG132] (Cbz-Leu-Leu-Leu-aldehyde)
cellular ATGL protein (ATGL [2]): accumulation
